Active and inactive are the calls of the source.

Test [1] addresses Cytochrome P450 2C19 (Homo sapiens, UniProt P33261). As to the kind of experiment: qHTS Assay for Inhibitors and Substrates of Cytochrome P450 2C19. [Related pubchem assays: 410 ]. Format: ADME. Particulars: read-out: Potency. In general terms: Quantitative high-throughput screening tests each substance at several concentrations.
Test [2] addresses Cytochrome P450 2C9 (Homo sapiens, UniProt P11712). Particulars: Potency.
The nature of test [3]: cells. The test is classed as functional.
Test [4] addresses T1, Streptokinase A (Streptococcus pyogenes serotype M1, UniProt P10520).
T1 sequence (P10520 whole entry): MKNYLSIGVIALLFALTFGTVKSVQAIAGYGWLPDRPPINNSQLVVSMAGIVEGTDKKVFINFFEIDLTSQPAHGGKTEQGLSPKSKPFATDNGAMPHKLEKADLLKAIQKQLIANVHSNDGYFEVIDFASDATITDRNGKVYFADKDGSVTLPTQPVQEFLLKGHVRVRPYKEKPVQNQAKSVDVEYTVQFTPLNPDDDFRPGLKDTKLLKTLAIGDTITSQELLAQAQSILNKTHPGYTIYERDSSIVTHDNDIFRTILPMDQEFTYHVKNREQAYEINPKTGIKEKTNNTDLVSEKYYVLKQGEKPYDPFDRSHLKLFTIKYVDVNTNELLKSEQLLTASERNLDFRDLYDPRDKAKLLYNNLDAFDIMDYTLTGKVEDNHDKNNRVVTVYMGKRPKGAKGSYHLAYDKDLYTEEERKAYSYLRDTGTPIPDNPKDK
As to the kind of experiment: viability-normalized secreted streptokinase activity reduction – plasminogen activation absorbance, OD405, dose response (AID 1914).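 Also: secreted streptokinase activity via plasminogen activation per viability signal from cell pellet.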 Format: functional, Streptococcus pyogenes M1 GAS.

Test [5] relates to Streptococcus. Nature of the test: GAS UMAA2166 growth inhibition – luminescence, BacTiterGlo, counter-screen for streptokinase expression inhibitor project, dose response (AID 1915).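 Also: potency for reduction of bacterial viability or growth.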 Format: functional, organism-based. (A counterscreen serves to expose hits that act by an unwanted route or on another target.)
In test [6] the target is Serine/threonine-protein phosphatase PP1-alpha catalytic subunit (Homo sapiens, UniProt P62136). Nature of the test: inhibition of protein phosphatase 1 activity – biochemical, fluorescence, dose response (AID 2403).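 Also: phosphatase turnover of OMFP into fluorescent 3-O-methylfluorescein.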
Test [7] has as its system Streptococcus sp. 'group A'. Nature of the test: Streptococcus pyogenes SK(-)GAS viability under kanamycin – luminescence, BacTiterGlo, confirmation, counter-screen for streptokinase expression inhibitor project, dose response (AID 1900). Format: functional, organism-based.
Test [8] is described as follows: Vero E6 cell cytotoxicity, dose response, cytotoxicity control for non-replicating M. tuberculosis project, secondary assay (AID 492998). Format: functional, VeroE6. Particulars: Vero C1008.
For test [9], the target named is T2, Microphthalmia-associated transcription factor (Homo sapiens, UniProt O75030).
T2 sequence (O75030 whole entry): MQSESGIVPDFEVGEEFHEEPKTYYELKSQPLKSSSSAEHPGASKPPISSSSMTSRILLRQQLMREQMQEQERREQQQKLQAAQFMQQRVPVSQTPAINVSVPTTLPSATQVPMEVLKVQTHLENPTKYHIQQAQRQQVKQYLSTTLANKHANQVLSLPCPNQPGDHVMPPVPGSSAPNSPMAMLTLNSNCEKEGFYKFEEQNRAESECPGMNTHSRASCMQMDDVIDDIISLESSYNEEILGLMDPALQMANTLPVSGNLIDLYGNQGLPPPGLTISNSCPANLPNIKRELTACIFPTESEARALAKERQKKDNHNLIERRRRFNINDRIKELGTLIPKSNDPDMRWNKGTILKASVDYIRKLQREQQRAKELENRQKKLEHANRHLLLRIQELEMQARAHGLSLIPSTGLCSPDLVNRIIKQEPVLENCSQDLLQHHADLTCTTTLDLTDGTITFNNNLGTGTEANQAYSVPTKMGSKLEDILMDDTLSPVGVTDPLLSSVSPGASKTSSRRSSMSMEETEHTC
Nature of the test: reducers of TRPM1 reporter luminescence, concentration series – cell-based, SK-MEL-5, cherry-picked, set 3, MITF inhibitor project, dose response (AID 493073).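 Also: SK-MEL-5 melanoma cells with luciferase driven by the MITF target TRPM1 promoter.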 The test is classed as functional.

The subject of test [10] is Vero. Nature of the test: cells. The test is classed as functional. Particulars: Chlorocebus sabaeus.
Test [11] is described as follows: THP-1 cell cytotoxicity, dose response, cytotoxicity control for non-replicating M. tuberculosis project (AID 489025). Format: functional.
The target in test [12] is Serine/threonine-protein phosphatase (Homo sapiens, UniProt Q9BPW0). Nature of the test: Counterscreen for inhibitors of PP1: fluorescence-based biochemical high throughput dose response assay to identify inhibitors of Protein Phosphatase 5 (PP5). [Related pubchem assays: 2034 (Summary (PP5 inhibitors)), 1987 (PP5 inhibitors in singlate), 2235 (PP1 inhibitors in singlate)].

For test [13], the system named is INS1. Nature of the test: INS-1E survival protection against cytokine death – cell-based, luminescence, retest, dose response (AID 449756).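 Also: cell death triggered by IL-1 beta plus TNF-alpha plus IFN-gamma mixture; protective hits raise ATP signal compared with cytokine alone wells.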 The test is classed as functional. Particulars: Rattus norvegicus.
Test [14] can be described thus: alpha-synuclein stem-loop luciferase translation blockers – H4 neuroglioma cells, luminescence, confirmation (AID 1988). Format: functional, cell-based.
The nature of test [15]: luciferase reporter signal suppression in cells – H4 neuroglioma cells, luminescence, dose response (AID 1990). The test is classed as functional, cell-based. (In general: A reporter such as luciferase makes a cellular process visible.)
Test [16] in a line: Luminescence Cell-Based Dose Response HTS to Identify Inhibitors of 5'UTR Stem-Loop Driven Prion Protein mRNA Translation in H4 Neuroglioblastoma Cells. [Related pubchem assays: 1827 (Project Summary), 1813 (Primary HTS)]. The test is classed as functional.
Test [17] has as its target Scavenger receptor class B member 1 (Mus musculus, UniProt Q61009). Nature of the test: mouse SR-BI DiI-HDL uptake blockers – ldlA[mSR-BI] cells, fluorescence, cherry pick, dose response (AID 493194).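 Also: cellular uptake of fluorescent DiI-labeled HDL measured as cell fluorescence.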 The test is classed as functional, cell-based.
The target in test [18] is T3, Hexokinase HKDC1 (Homo sapiens, UniProt Q2TB90).
T3 sequence (Q2TB90 whole entry): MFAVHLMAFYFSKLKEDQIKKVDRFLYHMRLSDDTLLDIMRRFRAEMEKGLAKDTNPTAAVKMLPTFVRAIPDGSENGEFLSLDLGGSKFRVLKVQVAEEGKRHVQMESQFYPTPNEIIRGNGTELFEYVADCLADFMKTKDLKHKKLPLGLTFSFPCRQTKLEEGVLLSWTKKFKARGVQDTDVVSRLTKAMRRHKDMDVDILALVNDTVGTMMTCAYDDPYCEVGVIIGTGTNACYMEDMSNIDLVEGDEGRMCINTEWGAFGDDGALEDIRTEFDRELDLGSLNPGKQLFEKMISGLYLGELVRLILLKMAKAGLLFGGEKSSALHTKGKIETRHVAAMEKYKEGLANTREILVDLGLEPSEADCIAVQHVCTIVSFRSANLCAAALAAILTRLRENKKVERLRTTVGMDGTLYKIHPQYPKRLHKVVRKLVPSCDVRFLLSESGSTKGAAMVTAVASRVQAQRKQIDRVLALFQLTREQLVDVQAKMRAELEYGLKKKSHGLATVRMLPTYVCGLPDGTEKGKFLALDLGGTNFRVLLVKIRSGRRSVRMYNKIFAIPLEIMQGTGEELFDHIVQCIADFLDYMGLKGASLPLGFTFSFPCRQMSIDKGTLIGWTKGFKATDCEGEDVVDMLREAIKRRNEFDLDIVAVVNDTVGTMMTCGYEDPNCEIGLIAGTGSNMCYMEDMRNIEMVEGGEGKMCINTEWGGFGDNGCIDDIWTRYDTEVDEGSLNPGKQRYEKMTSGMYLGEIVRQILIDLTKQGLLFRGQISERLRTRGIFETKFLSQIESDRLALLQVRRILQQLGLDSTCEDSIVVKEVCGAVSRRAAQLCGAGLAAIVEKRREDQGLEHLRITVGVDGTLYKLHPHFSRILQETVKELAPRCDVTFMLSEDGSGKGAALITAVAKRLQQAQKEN
Nature of the test: inhibition of HKDC1 glucose phosphorylation – biochemical, W721R variant, dose response (AID 504729). Format: functional.

Test [19] concerns the target Cytochrome P450 2D6 (Homo sapiens, UniProt P10635). As to the kind of experiment: qHTS Assay for Inhibitors and Substrates of Cytochrome P450 2D6. [Related pubchem assays: 410 ]. Format: ADME. Particulars: read-out: Potency.
For test [20], the system named is HeLa. Nature of the test: viability loss in HeLa cells – cell-based, 24 h, cherry-picked samples, cytotoxicity control, dose response (AID 504726).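 Also: potency for cytotoxicity as loss of luminescence signal.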 The test is classed as functional. Particulars: Homo sapiens.
Test [21] deals with T4, ORF 73 (Human herpesvirus 8, UniProt O40947).
T4 sequence (O40947 whole entry): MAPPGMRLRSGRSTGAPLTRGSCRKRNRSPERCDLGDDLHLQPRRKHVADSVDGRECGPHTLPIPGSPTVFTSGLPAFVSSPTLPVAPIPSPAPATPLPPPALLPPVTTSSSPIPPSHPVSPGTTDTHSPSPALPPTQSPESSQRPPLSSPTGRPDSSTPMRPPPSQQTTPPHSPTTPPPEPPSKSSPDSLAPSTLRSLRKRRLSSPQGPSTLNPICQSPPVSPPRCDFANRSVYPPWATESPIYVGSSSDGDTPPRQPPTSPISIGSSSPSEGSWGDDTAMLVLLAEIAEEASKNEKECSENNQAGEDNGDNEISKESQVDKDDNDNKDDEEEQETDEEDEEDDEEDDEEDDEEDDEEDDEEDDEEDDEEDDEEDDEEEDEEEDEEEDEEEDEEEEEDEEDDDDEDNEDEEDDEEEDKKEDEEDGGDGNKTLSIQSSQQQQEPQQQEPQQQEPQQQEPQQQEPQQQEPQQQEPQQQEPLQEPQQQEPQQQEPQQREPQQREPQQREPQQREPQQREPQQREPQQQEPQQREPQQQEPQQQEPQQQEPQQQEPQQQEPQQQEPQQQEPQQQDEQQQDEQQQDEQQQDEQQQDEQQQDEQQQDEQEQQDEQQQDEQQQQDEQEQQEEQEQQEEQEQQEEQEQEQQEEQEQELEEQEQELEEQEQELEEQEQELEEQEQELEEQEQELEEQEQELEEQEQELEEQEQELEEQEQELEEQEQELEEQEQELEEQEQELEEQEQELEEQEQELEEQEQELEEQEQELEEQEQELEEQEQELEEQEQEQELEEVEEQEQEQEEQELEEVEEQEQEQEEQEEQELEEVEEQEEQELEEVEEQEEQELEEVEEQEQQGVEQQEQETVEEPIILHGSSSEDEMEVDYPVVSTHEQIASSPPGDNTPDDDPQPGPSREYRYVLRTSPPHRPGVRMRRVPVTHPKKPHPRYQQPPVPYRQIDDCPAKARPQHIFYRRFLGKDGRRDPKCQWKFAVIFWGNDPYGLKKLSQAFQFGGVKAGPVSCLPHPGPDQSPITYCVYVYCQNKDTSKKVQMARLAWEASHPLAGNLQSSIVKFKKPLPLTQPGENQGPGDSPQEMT
Nature of the test: KSHV LANA DNA-binding disruption – biochemical, fluorescence polarization, cherry-picked samples, dose response (AID 504725).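 Also: fluorescence polarization of a labeled DNA duplex reporting LANA DNA binding; potency is for inhibitors that block LANA binding to the DNA.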 Also noted: species or system Human gammaherpesvirus 8.

In test [22] the target is Histone-lysine N-methyltransferase NSD2 (Homo sapiens, UniProt O96028). Format: biochemical.
The target in test [23] is Cytochrome P450 3A4 (Homo sapiens, UniProt P08684). The following applies: Potency.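 Also: confirmatory qHTS run detecting inhibitors and substrates of CYP3A4.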
Sequence of Cytochrome P450 3A4 (P08684 whole entry): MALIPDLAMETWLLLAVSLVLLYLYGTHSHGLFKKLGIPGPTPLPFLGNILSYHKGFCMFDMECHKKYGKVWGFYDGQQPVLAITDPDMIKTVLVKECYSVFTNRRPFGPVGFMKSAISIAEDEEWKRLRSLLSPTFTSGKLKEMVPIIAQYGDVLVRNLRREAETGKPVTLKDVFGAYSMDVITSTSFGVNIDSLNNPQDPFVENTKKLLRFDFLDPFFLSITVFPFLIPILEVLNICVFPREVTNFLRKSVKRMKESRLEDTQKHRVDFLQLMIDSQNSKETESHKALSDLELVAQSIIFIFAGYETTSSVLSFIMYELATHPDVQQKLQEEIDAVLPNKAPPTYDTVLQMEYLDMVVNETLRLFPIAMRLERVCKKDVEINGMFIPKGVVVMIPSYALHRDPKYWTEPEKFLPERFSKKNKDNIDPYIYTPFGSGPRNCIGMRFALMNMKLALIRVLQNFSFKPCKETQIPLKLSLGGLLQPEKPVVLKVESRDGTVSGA

Sequence of Cytochrome P450 2C19 (P33261 whole entry): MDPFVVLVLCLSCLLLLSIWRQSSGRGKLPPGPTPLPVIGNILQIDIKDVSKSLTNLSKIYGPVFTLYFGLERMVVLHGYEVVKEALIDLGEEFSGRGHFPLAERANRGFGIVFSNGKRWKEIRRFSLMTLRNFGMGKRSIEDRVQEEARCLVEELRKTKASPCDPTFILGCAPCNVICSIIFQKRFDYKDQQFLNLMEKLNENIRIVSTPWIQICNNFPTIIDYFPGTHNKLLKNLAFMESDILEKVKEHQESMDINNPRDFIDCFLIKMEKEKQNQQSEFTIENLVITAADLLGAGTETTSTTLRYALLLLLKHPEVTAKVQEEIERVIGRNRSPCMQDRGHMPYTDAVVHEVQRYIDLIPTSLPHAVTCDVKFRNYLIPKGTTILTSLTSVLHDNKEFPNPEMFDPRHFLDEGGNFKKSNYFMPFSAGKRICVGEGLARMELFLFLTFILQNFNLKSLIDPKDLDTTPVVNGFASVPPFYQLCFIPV
Sequence of Scavenger receptor class B member 1 (Q61009 whole entry): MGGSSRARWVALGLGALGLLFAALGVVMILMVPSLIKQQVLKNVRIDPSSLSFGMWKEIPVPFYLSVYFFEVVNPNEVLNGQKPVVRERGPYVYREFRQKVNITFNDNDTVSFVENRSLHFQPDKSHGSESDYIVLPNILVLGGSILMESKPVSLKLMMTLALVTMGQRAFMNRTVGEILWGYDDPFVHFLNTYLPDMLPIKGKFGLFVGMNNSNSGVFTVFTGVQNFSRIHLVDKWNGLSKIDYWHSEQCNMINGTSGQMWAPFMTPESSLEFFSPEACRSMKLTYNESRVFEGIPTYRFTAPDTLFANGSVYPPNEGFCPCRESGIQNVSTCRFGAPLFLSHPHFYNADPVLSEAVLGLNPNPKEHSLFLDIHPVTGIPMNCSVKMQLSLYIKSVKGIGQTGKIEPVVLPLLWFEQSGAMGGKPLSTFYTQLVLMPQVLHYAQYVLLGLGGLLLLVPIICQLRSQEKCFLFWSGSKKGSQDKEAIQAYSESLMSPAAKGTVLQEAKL
Sequence of Cytochrome P450 2C9 (P11712 whole entry): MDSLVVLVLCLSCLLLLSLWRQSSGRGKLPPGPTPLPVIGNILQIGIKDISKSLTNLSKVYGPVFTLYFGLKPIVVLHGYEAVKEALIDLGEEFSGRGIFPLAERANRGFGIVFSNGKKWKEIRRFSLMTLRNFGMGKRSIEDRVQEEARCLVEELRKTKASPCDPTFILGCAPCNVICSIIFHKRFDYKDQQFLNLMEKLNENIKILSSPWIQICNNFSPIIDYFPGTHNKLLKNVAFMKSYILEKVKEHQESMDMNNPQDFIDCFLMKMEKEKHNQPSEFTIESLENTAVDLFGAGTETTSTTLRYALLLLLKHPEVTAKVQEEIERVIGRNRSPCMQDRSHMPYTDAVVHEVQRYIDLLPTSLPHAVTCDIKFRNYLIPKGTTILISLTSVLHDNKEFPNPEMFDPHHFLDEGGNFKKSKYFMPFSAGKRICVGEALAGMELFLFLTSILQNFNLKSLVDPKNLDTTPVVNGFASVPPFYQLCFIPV
Sequence of Cytochrome P450 2D6 (P10635 whole entry): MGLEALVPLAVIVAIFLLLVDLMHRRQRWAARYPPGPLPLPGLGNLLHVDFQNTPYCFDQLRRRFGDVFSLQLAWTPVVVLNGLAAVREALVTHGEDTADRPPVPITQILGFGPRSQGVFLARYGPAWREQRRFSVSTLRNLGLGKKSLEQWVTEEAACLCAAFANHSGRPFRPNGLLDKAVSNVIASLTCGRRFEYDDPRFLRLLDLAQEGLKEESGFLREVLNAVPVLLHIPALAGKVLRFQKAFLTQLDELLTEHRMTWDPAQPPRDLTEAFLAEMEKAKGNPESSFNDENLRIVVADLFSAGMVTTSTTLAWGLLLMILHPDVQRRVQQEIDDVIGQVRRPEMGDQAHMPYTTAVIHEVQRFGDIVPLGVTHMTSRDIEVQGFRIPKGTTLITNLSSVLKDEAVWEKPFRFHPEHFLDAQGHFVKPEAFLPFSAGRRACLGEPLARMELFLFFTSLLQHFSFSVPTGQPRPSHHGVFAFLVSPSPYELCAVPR
Sequence of Serine/threonine-protein phosphatase (Q9BPW0 whole entry): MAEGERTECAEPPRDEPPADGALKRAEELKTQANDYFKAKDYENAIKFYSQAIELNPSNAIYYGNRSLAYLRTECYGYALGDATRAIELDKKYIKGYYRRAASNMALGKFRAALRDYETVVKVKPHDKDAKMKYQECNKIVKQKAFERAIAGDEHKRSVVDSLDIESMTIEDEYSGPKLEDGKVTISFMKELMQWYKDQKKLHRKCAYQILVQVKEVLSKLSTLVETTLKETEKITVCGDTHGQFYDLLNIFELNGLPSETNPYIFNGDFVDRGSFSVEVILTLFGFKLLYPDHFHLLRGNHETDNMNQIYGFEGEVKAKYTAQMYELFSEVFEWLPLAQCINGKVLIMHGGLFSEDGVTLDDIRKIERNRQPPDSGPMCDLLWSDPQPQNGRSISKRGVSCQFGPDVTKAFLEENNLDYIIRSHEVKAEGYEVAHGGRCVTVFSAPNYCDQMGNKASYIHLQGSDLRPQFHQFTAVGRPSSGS
Sequence of Histone-lysine N-methyltransferase NSD2 (O96028 whole entry): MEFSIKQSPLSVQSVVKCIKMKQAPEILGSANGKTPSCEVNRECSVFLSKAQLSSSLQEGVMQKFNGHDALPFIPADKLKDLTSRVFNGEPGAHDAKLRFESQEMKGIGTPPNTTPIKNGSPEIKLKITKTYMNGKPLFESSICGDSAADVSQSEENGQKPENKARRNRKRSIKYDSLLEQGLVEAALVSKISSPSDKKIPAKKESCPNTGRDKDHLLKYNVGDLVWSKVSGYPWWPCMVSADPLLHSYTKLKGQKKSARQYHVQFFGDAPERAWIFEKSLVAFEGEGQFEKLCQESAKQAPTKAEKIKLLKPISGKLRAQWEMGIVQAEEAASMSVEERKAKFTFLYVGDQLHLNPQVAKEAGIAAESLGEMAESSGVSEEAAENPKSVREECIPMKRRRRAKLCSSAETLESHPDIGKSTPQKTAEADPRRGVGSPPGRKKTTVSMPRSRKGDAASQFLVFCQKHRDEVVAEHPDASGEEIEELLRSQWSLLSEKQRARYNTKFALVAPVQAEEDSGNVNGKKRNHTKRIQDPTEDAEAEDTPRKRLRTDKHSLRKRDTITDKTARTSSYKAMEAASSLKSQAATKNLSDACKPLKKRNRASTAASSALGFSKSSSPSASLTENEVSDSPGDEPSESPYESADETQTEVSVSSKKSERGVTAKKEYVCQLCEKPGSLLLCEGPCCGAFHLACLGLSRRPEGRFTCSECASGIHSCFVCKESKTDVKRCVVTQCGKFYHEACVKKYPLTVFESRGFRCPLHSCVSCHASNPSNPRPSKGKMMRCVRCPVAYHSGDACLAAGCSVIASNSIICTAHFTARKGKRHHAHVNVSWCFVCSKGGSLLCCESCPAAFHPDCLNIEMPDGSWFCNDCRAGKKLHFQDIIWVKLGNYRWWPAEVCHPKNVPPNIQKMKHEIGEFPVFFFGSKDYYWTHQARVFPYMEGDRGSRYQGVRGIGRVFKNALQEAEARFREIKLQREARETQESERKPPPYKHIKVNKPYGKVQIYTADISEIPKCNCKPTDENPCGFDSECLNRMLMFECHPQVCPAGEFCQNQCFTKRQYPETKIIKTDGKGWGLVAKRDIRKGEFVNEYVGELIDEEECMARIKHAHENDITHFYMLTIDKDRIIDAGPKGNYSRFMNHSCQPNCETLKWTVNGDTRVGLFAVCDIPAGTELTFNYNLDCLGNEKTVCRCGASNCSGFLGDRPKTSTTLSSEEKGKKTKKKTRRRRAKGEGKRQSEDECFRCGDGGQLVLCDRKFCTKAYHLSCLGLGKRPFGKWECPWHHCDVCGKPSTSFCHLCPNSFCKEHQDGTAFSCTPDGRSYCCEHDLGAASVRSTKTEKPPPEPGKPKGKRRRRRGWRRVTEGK
Sequence of Serine/threonine-protein phosphatase PP1-alpha catalytic subunit (P62136 whole entry): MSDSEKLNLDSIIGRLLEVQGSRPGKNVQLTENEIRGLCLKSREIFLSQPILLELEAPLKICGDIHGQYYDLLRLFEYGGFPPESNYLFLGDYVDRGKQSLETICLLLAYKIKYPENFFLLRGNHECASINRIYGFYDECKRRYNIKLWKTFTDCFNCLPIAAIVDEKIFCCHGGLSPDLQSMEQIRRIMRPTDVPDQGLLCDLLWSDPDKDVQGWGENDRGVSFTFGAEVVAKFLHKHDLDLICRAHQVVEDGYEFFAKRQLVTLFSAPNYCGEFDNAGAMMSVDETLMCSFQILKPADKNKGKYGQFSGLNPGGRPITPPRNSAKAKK

Consider `CC(=O)OCC1OC(C#Cc2ccc(C)cc2C)C=CC1OC(C)=O` (centres undefined), for which the AC50 is 1.58 µM (inconclusive) in test [1] and 2.51 µM (inconclusive) in [2].
The IC50 is the concentration that inhibits the measured activity by half. As usually defined, the EC50 is the concentration at which the effect is half-maximal. A word on the CC50: it is the concentration giving 50% cytotoxicity. Take `COc1ccc(/C=N/Nc2cc(C)nc(-n3nc(C)cc3C)n2)c(OC)c1`: the IC50 is 0.24 µM (active) in test [3], 6.68 µM (active) in [6] and > 67 µM (not active) in test [12]. The 50% effective concentration (EC50) is > 150 µM (not active) in [4], 13.8 µM (active) in test [5] and 9.67 µM (active) in [7]. Moreover, the CC50 is 7.06 µM (active) in test [8], 19.8 µM (active) in test [10] and 5.91 µM (active) in test [11]. The AC50 in [9] was 10.4 µM (active); in [13], 2.67 µM (active).
For the molecule `O=C(Nc1cccc(NC(=O)c2cc([N+](=O)[O-])ccc2Cl)n1)c1cc([N+](=O)[O-])ccc1Cl`, the EC50 is 8.35 µM (active) in [14], 15.3 µM (active) in test [15] and > 60 µM (not active) in test [16]. Also, the AC50 in test [13] is 6.4 µM (active); in [17] it was 20.2 µM (active).
For the molecule `CCOC(=O)c1ccc(NC(=O)CSc2ccc(-c3ccccn3)nn2)cc1`, the IC50 in test [18] is 2.31 µM (active).
In the case of `COc1ccc(-c2coc3cc(O)ccc3c2=O)cc1` [FORMONONETIN], the AC50 in test [19] was 10 µM (inconclusive); in test [1], 7.94 µM (inconclusive).
`O=C1CCCC(=O)C1=NNc1ccc(C(=O)O)cc1`: the AC50 is > 350 µM (inactive) in [20], 30.2 µM (active) in [21] and 10.3 µM (active) in test [22].
For the molecule `O=C(c1cn(-c2ccccc2)nc1-c1cccc([N+](=O)[O-])c1)N1CCCCC1`, the AC50 in test [17] was 23.6 µM (active).
For `COC(=O)NC(/C(C(=O)OC)=C(\C)NCc1ccccc1)c1cccs1` (centres undefined), the AC50 was 3.98 µM (inconclusive) in [19], 3.98 µM (inconclusive) in test [23], 0.0316 µM (inconclusive) in test [1] and 7.94 µM (inconclusive) in test [2].

The values above are taken from ChEMBL document CHEMBL1201862, “PubChem BioAssay data set” (2004).
